The text below walks through data of paper PMC3369139, “Preclinical evaluation of two ^68Ga-siderophores as potential radiopharmaceuticals for Aspergillus fumigatus infection imaging” (European Journal of Nuclear Medicine and Molecular Imaging, 2012).

Data set [1] in a line: Log P of ^68Ga-siderophores. Particulars: determined as described previously [20]. It is filed as physicochemical. The method, then: (§1) TAFC and FOXE were labelled with ^68Ga using acetate buffer at room temperature for 15 min (TAFC) and at 80 °C for 20 min (FOXE). For all in vitro and in vivo studies, the pH of the final product was adjusted with 1.1 M sodium acetate to pH 6–7. The radiochemical purity, log P, protein binding and stability of ^68Ga-siderophores in various media were determined, as described previously.

Data set [2] in a line: Stability in 6 mM DTPA. It counts as physicochemical. How it is done:
as §1

Data set [3] can be described thus: Metabolic stability in normal Balb/c mice (RP-HPLC of urine, blood, liver and kidney homogenates). It counts as in vivo. Conditions: 30 min p.i., % intact on RP-HPLC; for Stability in urine (%): γ-counter; for Stability in blood (%): acetonitrile precipitation. How it is done:
Urine, blood, liver and kidneys of normal Balb/c mice injected with ^68Ga-siderophores and treated as described previously were collected 30 min after injection. The urine sample was directly injected onto the RP-HPLC column. Blood samples were precipitated with acetonitrile and centrifuged for 2 min, and the supernatant was injected onto the RP-HPLC column. Liver and kidneys were washed in the ice-cold TRIS buffer and liquidized using a mixer in a falcon tube containing 1 ml of TRIS buffer. The liver and kidney homogenates obtained were mixed with acetonitrile and centrifuged for 2 min, and the supernatant was injected onto the RP-HPLC column. In all cases 1 min fractions of the column eluate were collected and measured in a γ-counter. Samples were not collected at 90 min after injection because the measured activity was already low in the samples obtained 30 min after injection. All metabolic studies were performed using a previously described HPLC method.

The subject of data set [4] is A. fumigatus. Nature of the data set: Ex vivo biodistribution in rat A. fumigatus infection model, iron preload. Further details: species or system Lewis rats. Particulars: for Severe infection (%ID/g - lungs): iron preload model (10 mg/kg i.p. three times), severely infected rats; for Severe infection (%ID/g - lungs) / Mild infection (%ID/g - lungs) / Control (%ID/g - lungs): lungs 2 h after injection, n in cell; for Lung/blood ratio, control / Lung/blood ratio, mild infection / Lung/blood ratio, severe infection / Lung/kidneys ratio, control / Lung/kidneys ratio, mild infection / Lung/kidneys ratio, severe infection / Lung/liver ratio, control / Lung/liver ratio, mild infection / Lung/liver ratio, severe infection / Mild infection (%ID/g - lungs) / Control (%ID/g - lungs): iron preload model; for Lung/blood ratio, control / Lung/blood ratio, mild infection / Lung/blood ratio, severe infection / Lung/kidneys ratio, control / Lung/kidneys ratio, mild infection / Lung/kidneys ratio, severe infection / Lung/liver ratio, control / Lung/liver ratio, mild infection / Lung/liver ratio, severe infection: 2 h after injection; for Mild infection (%ID/g - lungs): mildly infected rats; for Control (%ID/g - lungs): rats showing no infection. How it is done: The A. fumigatus (A29) isolate was grown on Sabouraud dextrose agar (BD) for 5 days at 37 °C, and the conidia were harvested in 2 ml of sterile NaCl by gently rubbing with a pipette tip. The conidia suspension was transferred into a sterile 50 ml plastic tube. After homogenization (vortex) and filtration (40 μm nylon cell strainer; BD), the suspension was counted in a Neubauer chamber and adjusted to the volitional concentration in the range 1 × 10^5 to 1 × 10^9 conidia per millilitre.
Female or male Lewis rats (2–3 months old), weighing 200–250 g, were treated as described previously. Briefly, the rats received repeated intraperitoneal injections of cyclophosphamide to induce neutropenia before A. fumigatus administration. To prevent bacterial superinfection, the animals were given antibiotics throughout the experiment. Fungal infection was established by intratracheal administration of 100–300 μl of A. fumigatus inoculum in various concentrations (1 × 10^5 to 1 × 10^9 conidia per millilitre). Animals were injected intravenously 1–3 days (depending on the severity of infection) after A. fumigatus administration with ^68Ga-labelled siderophore (10–20 MBq and 1–2 μg of siderophore per rat). The rats were imaged or killed by overdosing with thiopental (Sandoz, Kundl, Austria) 2 h after injection. Various organs and tissues (blood, spleen, kidneys, liver and lungs) were removed and radioactivity was measured in a γ-counter. The excised organs were investigated for the presence of fungi, as described below.
Rats were treated as in the ‘standard’ infection model above, except that iron solution (FerMed; Medice, Iserlohn, Germany) 10 mg/kg was injected intraperitoneally three times (1 week, 4 days and 1 day) before A. fumigatus administration.
The excised organs were homogenized in a petri dish using a sterile surgical blade and transferred to Sabouraud dextrose agar (BD) plates. The plates were incubated at 37 °C and examined daily for 7 days. […] Severe infection was defined as the presence of severe fungal growth 1 day after incubation, mild infection was defined as the presence of minor growth up to 3 days after incubation, and no infection was defined as lack of growth within 1 week of incubation.

With `O=C1CCC(=O)N([O-])CCCCCNC(=O)CCC(=O)N([O-])CCCCCNC(=O)CCC(=O)N([O-])CCCCCN1.[68Ga+3]` [^68Ga-FOXE, ferrioxamine E], the lipophilicity (Log P) (commonly a log measure of how a compound divides between an organic and an aqueous phase) in data set [1] is −1.65. Further, the “Stability in 6-mM DTPA (%)” value in data set [2] (incubation time 30 min) is listed as 94.3%. Besides, the “Stability in 6-mM DTPA (%)” value in data set [2] (incubation time 60 min) came to 93.8%. For the same compound, in data set [2] (incubation time 120 min), the “Stability in 6-mM DTPA (%)” value was determined as 93.2%. Further, in data set [3], the “Stability in kidney homogenate (%)” value was 97.6%, the “Stability in liver homogenate (%)” value is reported as 71.3%, the “Stability in urine (%)” value stood at 95.9% and the “Stability in blood (%)” value was 97.7%. Also, in data set [4], the “Severe infection (%ID/g - lungs)” value is recorded as 1.72 (n=1) %ID/g; the “Lung/blood ratio, control” value is recorded as 0.64 (n=2); the “Lung/blood ratio, mild infection” value is listed as 0.81 (n=2); the “Lung/blood ratio, severe infection” value is listed as 2.41 (n=1). In data set [4], the “Lung/kidneys ratio, control” value is given as 0.06 (n=2); the “Lung/kidneys ratio, mild infection” value was 0.12 (n=2); the “Lung/kidneys ratio, severe infection” value is on record as 0.11 (n=1); the “Lung/liver ratio, control” value is 0.58 (n=2). Also, in data set [4], the “Lung/liver ratio, mild infection” value was 1.17 (n=2); the “Lung/liver ratio, severe infection” value is reported as 5.93 (n=1); the “Mild infection (%ID/g - lungs)” value was 0.14 (n=2) %ID/g; the “Control (%ID/g - lungs)” value is reported as 0.04 (n=2) %ID/g.

Consider `CC(=O)NC1CCCN([O-])C(=O)C=C(C)CCOC(=O)C(NC(C)=O)CCCN([O-])C(=O)C=C(C)CCOC(=O)C(NC(C)=O)CCCN([O-])C(=O)C=C(C)CCOC1=O.[68Ga+3]` (stereo not drawn) [^68Ga-TAFC, triacetylfusarinine C], for which the “Log P” value in data set [1] was −2.59. Besides, the “Stability in 6-mM DTPA (%)” value in data set [2] (incubation time 30 min) came to 85.0%. Besides, the “Stability in 6-mM DTPA (%)” value in data set [2] (incubation time 60 min) was 84.7%. Besides, in data set [3], the “Stability in kidney homogenate (%)” value came out at 96.7%, the “Stability in liver homogenate (%)” value was 98.1%, the “Stability in urine (%)” value is 97.6% and the “Stability in blood (%)” value was determined as 98.7%. Also, in data set [4], the “Severe infection (%ID/g - lungs)” value is 0.64 (n=1) %ID/g; the “Lung/blood ratio, control” value was 0.99 (n=1); the “Lung/blood ratio, mild infection” value is reported as 5.35 (n=2); the “Lung/blood ratio, severe infection” value is 1.41 (n=1). In data set [4], the “Lung/kidneys ratio, control” value is 0.08 (n=1); the “Lung/kidneys ratio, mild infection” value is 0.31 (n=2); the “Lung/kidneys ratio, severe infection” value is 0.07 (n=1); the “Lung/liver ratio, control” value is reported as 0.76 (n=1). For the same compound, in data set [4], the “Lung/liver ratio, mild infection” value is recorded as 4.53 (n=2); the “Lung/liver ratio, severe infection” value is given as 3.49 (n=1); the “Mild infection (%ID/g - lungs)” value was 0.27 (n=2) %ID/g; the “Control (%ID/g - lungs)” value is 0.04 (n=1) %ID/g.
